Where a SMILES comes first, the peptide text is derived from it. Bridges are numbered along the chain shown (N, C = ends).
Experiments:
[1] = target: rNaV1.2 (Rattus norvegicus, UniProt P04775); test: Two-electrode voltage-clamp on Xenopus laevis oocytes expressing NaV1.2; details: for inhibition at 100 µM: read-out: Maximum % inhibition NaV1.2, peptide at 100 μM
[2] = target: rNaV1.8 (Rattus norvegicus, UniProt Q62968); test: Two-electrode voltage-clamp on Xenopus laevis oocytes expressing NaV1.8; details: for inhibition at 100 µM: read-out: Maximum % inhibition NaV1.8
[3] = target: rNaV1.7 (Rattus norvegicus, UniProt O08562); test: Two-electrode voltage-clamp on Xenopus laevis oocytes expressing NaV1.7
[4] = target: hNaV1.1 (Homo sapiens, UniProt P35498); test: Two-electrode voltage-clamp on Xenopus laevis oocytes expressing NaV1.1
[5] = target: rNaV1.3 (Rattus norvegicus, UniProt P08104); test: Two-electrode voltage-clamp on Xenopus laevis oocytes expressing NaV1.3
[6] = target: mNaV1.6 (Mus musculus, UniProt Q9WTU3); test: Two-electrode voltage-clamp on Xenopus laevis oocytes expressing NaV1.6; details: for inhibition at 100 µM: read-out: Maximum % inhibition NaV1.6, peptide at 100 μM
mNaV1.6, sequence (Q9WTU3 whole entry): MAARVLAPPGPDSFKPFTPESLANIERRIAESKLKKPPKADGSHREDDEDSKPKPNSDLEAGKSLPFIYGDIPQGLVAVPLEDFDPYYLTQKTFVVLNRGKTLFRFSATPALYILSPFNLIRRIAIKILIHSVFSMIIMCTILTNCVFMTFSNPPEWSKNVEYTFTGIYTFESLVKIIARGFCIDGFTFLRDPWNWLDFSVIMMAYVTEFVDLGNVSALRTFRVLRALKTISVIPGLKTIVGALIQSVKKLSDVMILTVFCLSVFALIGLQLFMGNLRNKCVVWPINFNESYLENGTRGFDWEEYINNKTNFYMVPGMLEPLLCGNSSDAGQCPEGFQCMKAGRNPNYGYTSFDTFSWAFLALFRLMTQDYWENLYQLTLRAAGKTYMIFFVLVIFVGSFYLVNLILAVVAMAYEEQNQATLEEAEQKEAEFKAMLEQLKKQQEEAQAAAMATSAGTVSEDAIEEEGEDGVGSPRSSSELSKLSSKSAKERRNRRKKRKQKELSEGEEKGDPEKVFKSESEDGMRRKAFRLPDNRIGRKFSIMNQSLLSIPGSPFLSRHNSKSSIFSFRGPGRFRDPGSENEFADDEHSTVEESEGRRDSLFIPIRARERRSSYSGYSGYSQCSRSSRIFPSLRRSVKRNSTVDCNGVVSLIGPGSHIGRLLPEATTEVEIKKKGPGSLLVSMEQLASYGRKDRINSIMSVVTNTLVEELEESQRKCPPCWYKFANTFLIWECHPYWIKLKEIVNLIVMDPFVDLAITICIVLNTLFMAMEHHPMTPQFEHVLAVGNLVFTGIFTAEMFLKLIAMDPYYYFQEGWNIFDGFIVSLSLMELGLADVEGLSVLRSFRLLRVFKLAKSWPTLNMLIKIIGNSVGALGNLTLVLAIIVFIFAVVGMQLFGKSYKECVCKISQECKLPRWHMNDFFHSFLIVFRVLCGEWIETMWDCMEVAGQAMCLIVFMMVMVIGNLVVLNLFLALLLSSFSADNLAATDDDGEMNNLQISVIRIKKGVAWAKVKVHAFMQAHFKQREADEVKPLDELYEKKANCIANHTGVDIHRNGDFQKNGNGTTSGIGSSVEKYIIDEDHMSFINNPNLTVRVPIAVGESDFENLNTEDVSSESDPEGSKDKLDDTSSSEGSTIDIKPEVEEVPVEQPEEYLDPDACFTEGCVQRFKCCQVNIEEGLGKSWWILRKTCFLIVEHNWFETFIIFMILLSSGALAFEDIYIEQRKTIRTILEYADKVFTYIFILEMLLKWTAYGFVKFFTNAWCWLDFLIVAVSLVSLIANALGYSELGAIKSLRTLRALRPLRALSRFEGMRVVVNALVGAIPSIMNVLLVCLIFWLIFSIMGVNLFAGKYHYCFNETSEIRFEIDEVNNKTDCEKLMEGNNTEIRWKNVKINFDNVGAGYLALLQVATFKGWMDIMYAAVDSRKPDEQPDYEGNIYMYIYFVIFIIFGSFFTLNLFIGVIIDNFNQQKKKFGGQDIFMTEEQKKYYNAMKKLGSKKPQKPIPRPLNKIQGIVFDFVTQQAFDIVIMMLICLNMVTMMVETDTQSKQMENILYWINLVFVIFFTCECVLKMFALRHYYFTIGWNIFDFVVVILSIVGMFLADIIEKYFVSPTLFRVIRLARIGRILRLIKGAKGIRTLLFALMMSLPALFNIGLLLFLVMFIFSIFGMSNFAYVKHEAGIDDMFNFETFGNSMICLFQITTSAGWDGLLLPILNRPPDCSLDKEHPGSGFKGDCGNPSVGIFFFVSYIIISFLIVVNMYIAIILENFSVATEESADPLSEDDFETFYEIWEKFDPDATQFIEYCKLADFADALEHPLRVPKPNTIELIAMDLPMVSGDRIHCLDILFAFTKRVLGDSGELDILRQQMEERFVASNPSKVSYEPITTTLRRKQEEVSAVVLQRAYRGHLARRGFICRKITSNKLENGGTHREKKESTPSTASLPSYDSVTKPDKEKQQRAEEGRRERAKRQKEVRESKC

[7] = target: rNaV1.4 (Rattus norvegicus, UniProt P15390); test: Two-electrode voltage-clamp on Xenopus laevis oocytes expressing NaV1.4; details: for inhibition at 100 µM: read-out: Maximum % inhibition NaV1.4, peptide at 100 μM; for Maximum % inhibition NaV1.4: peptide at 100 μM, 100 µM
[8] = target: hNaV1.5 (Homo sapiens, UniProt Q14524); test: Two-electrode voltage-clamp on Xenopus laevis oocytes expressing NaV1.5; details: for inhibition at 100 µM: read-out: Maximum % inhibition NaV1.5

rNaV1.2, sequence (P04775 whole entry): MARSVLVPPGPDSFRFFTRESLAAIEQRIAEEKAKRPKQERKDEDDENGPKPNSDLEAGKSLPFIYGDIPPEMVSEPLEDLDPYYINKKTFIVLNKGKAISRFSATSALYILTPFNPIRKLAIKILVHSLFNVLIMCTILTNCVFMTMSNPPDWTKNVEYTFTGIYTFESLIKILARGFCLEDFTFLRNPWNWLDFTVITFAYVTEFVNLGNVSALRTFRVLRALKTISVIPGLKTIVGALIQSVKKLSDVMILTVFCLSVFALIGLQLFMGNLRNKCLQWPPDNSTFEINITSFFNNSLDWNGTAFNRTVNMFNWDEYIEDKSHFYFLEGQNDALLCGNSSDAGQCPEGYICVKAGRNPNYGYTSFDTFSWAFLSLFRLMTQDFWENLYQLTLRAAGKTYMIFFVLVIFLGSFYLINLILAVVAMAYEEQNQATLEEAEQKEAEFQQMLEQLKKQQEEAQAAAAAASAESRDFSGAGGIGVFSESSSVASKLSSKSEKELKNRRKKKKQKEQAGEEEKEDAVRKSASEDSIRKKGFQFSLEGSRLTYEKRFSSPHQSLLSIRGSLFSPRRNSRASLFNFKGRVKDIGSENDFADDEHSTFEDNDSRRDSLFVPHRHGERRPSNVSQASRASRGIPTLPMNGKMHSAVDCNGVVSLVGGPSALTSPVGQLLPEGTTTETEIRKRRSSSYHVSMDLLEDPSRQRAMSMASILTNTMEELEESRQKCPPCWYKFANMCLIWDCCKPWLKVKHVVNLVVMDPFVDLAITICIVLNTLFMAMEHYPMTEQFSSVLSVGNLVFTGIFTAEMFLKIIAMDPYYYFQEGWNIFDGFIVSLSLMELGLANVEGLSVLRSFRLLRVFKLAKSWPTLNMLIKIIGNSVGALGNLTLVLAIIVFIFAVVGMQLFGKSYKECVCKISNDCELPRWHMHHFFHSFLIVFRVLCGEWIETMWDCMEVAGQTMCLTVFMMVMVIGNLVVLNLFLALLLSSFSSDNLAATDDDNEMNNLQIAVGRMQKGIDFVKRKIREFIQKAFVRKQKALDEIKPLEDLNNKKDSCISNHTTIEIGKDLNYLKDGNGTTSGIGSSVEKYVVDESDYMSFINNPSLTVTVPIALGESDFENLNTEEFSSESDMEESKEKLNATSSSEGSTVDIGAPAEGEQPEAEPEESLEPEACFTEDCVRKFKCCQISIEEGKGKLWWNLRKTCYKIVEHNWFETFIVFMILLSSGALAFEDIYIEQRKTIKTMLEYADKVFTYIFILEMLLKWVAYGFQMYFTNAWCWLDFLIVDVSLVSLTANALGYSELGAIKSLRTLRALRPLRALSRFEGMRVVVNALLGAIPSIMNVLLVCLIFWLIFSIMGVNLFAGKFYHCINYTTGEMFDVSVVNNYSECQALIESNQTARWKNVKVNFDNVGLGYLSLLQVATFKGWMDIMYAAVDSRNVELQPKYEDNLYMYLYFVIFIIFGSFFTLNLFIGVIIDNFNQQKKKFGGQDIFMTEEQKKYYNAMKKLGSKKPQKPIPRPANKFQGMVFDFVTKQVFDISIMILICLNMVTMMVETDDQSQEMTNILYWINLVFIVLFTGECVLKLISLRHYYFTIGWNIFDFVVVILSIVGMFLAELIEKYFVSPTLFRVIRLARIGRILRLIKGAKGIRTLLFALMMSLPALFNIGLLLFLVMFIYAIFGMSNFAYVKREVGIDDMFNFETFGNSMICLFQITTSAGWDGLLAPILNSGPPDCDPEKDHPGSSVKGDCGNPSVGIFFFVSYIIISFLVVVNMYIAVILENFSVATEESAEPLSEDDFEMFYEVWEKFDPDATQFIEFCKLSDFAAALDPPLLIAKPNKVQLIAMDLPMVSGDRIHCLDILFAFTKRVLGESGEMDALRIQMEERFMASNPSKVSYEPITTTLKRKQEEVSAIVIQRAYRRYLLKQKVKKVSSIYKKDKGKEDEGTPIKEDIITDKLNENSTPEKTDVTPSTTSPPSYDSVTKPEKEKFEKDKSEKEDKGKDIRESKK
rNaV1.2, sequence (Q00954 19-218, further chain): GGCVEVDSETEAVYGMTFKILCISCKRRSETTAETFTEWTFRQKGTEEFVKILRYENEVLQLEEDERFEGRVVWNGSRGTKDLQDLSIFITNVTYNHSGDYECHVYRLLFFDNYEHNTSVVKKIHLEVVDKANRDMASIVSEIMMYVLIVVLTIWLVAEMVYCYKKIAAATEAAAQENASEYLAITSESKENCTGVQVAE

SMILES | IC50 [1] | inhibition at 100 µM [1] | IC50 [2] | inhibition at 100 µM [2] | IC50 [3] | IC50 [4] | IC50 [5] | IC50 [6] | inhibition at 100 µM [6] | IC50 [7] | inhibition at 100 µM [7] | IC50 [8] | inhibition at 100 µM [8] | Maximum % inhibition NaV1.2 ([1]; peptide at 100 μM, 100 µM) | Maximum % inhibition NaV1.6 ([6]; peptide at 100 μM, 100 µM) | Maximum % inhibition NaV1.4 [7]
C[C@@H]1NC(=O)[C@H](Cc2c[nH]c3ccccc23)NC(=O)[C@H](CCCNC(=N)N)NC(=O)[C@H](CCCNC(=N)N)NC(=O)[C@@H](N)CSSC[C@@H](C(N)=O)NC(=O)[C@H](CCCNC(=N)N)NC(=O)[C@H](CC(N)=O)NC(=O)[C@H](Cc2c[nH]c3ccccc23)NC(=O)[C@H](CCCNC(=N)N)NC1=O [PnCS1, CRRWARWNRC ^*] (H-CRRWARWNRC-NH2; disulfide 1-10) | 1 ± 0.3 µM | 97% | > 100 µM | 0% | 0.9 ± 0.2 µM | 0.8 ± 0.3 µM | 1.1 ± 0.4 µM | 0.7 ± 0.3 µM | 96% | 0.6 ± 0.3 µM | 94% | 2.8 ± 0.5 µM | 94% |  |  | 
C[C@@H]1NC(=O)[C@H](Cc2c[nH]c3ccccc23)NC(=O)[C@H](CCCCN)NC(=O)[C@H](CCCNC(=N)N)NC(=O)[C@@H](N)CSSC[C@@H](C(N)=O)NC(=O)[C@H](CCCNC(=N)N)NC(=O)[C@H](CC(N)=O)NC(=O)[C@H](Cc2c[nH]c3ccccc23)NC(=O)[C@H](CCCNC(=N)N)NC1=O [PnCS1[R3K], CRKWARWNRC ^*] (H-CRKWARWNRC-NH2; disulfide 1-10) | 0.8 ± 0.3 µM | > 95% | > 100 µM | 0% |  |  |  | 0.8 ± 0.3 µM | 86% | 0.6 ± 0.3 µM | 92% | 2.7 ± 0.6 µM | 94% | 96% |  | 
C[C@@H]1NC(=O)[C@H](C)NC(=O)[C@H](Cc2c[nH]c3ccccc23)NC(=O)[C@H](CCCNC(=N)N)NC(=O)[C@H](CCCNC(=N)N)NC(=O)[C@@H](N)CSSC[C@@H](C(N)=O)NC(=O)[C@H](CCCNC(=N)N)NC(=O)[C@H](CC(N)=O)NC(=O)[C@H](Cc2c[nH]c3ccccc23)NC1=O [PnCS1[R6A], CRRWAAWNRC ^*] (H-CRRWAAWNRC-NH2; disulfide 1-10) | 9.2 ± 1.1 µM | 73% | > 100 µM | 0% |  |  |  | 0.9 ± 0.2 µM | > 95% | 0.5 ± 0.2 µM | > 95% | 7.6 ± 2.2 µM | 78% |  | 96% | 90%
C[C@@H]1NC(=O)[C@H](Cc2c[nH]c3ccccc23)NC(=O)[C@H](CCCNC(=N)N)NC(=O)[C@H](CCCNC(=N)N)NC(=O)[C@@H](N)CSSC[C@@H](C(N)=O)NC(=O)[C@H](CCCNC(=N)N)NC(=O)[C@H](CC(N)=O)NC(=O)[C@H](Cc2c[nH]c3ccccc23)NC(=O)[C@H](CCCCN)NC1=O [PnCS1[R6K], CRRWAKWNRC ^*] (H-CRRWAKWNRC-NH2; disulfide 1-10) | 8.7 ± 2.4 µM | 67% | > 100 µM | 0% |  |  |  | 0.9 ± 0.3 µM | 88% | 0.6 ± 0.4 µM | 94% | 3.3 ± 1.5 µM | 89% |  |  | 
C[C@@H]1NC(=O)[C@H](CC(N)=O)NC(=O)[C@H](Cc2c[nH]c3ccccc23)NC(=O)[C@H](CCCNC(=N)N)NC(=O)[C@H](C)NC(=O)[C@H](Cc2c[nH]c3ccccc23)NC(=O)[C@H](CCCNC(=N)N)NC(=O)[C@H](CCCNC(=N)N)NC(=O)[C@@H](N)CSSC[C@@H](C(N)=O)NC1=O [PnCS1[R9A], CRRWARWNAC ^*] (H-CRRWARWNAC-NH2; disulfide 1-10) | 6.7 ± 1.2 µM | 80% | > 100 µM | 0% |  |  |  | 0.9 ± 0.4 µM | 79% | 1.1 ± 0.3 µM | 86% | 9.2 ± 4.6 µM | 72% |  |  | 
C[C@@H]1NC(=O)[C@H](Cc2c[nH]c3ccccc23)NC(=O)[C@H](CCCNC(=N)N)NC(=O)[C@H](CCCNC(=N)N)NC(=O)[C@@H](N)CSSC[C@@H](C(N)=O)NC(=O)[C@H](CCC(=O)O)NC(=O)[C@H](CC(N)=O)NC(=O)[C@H](Cc2c[nH]c3ccccc23)NC(=O)[C@H](CCCNC(=N)N)NC1=O [PnCS1[R9E], CRRWARWNEC ^*] (H-CRRWARWNEC-NH2; disulfide 1-10) | > 100 µM | 49% | > 100 µM | 0% |  |  |  | > 100 µM | 11% | > 100 µM | 0% | > 100 µM | 40% |  |  | 
C[C@@H]1NC(=O)[C@H](Cc2c[nH]c3ccccc23)NC(=O)[C@H](CCCNC(=N)N)NC(=O)[C@H](CCCNC(=N)N)NC(=O)[C@@H](N)CSSC[C@@H](C(N)=O)NC(=O)[C@H](CCCCN)NC(=O)[C@H](CC(N)=O)NC(=O)[C@H](Cc2c[nH]c3ccccc23)NC(=O)[C@H](CCCNC(=N)N)NC1=O [PnCS1[R9K], CRRWARWNKC ^*] (H-CRRWARWNKC-NH2; disulfide 1-10) | 10.2 ± 4.3 µM | 62% | > 100 µM | 0% |  |  |  | 6.7 ± 0.8 µM | 72% | 6.1 ± 2.1 µM | 66% | 9.2 ± 0.6 µM | 67% |  |  | 
C[C@@H]1NC(=O)[C@H](C)NC(=O)[C@H](CCCNC(=N)N)NC(=O)[C@H](CCCNC(=N)N)NC(=O)[C@@H](N)CSSC[C@@H](C(N)=O)NC(=O)[C@H](CCCNC(=N)N)NC(=O)[C@H](CC(N)=O)NC(=O)[C@H](Cc2c[nH]c3ccccc23)NC(=O)[C@H](CCCNC(=N)N)NC1=O [PnCS1[W4A], CRRAARWNRC ^*] (H-CRRAARWNRC-NH2; disulfide 1-10) | 0.8 ± 0.3 µM | 89% | > 100 µM | 0% |  |  |  | 1.2 ± 0.3 µM | 76% | 0.7 ± 0.3 µM | 95% | 3.4 ± 0.2 µM | 82% |  |  | 
C[C@@H]1NC(=O)[C@H](CCC(=O)O)NC(=O)[C@H](CCCNC(=N)N)NC(=O)[C@H](CCCNC(=N)N)NC(=O)[C@@H](N)CSSC[C@@H](C(N)=O)NC(=O)[C@H](CCCNC(=N)N)NC(=O)[C@H](CC(N)=O)NC(=O)[C@H](Cc2c[nH]c3ccccc23)NC(=O)[C@H](CCCNC(=N)N)NC1=O [PnCS1[W4E], CRREARWNRC ^*] (H-CRREARWNRC-NH2; disulfide 1-10) | 13.2 ± 5.2 µM | 72% | > 100 µM | 0% |  |  |  | 14.8 ± 3.9 µM | 67% | 12.8 ± 4.1 µM | 59% | > 100 µM | 34% |  |  | 
C[C@@H]1NC(=O)[C@H](CCCNC(=N)N)NC(=O)[C@H](C)NC(=O)[C@H](Cc2c[nH]c3ccccc23)NC(=O)[C@H](CCCNC(=N)N)NC(=O)[C@H](CCCNC(=N)N)NC(=O)[C@@H](N)CSSC[C@@H](C(N)=O)NC(=O)[C@H](CCCNC(=N)N)NC(=O)[C@H](CC(N)=O)NC1=O [PnCS1[W7A], CRRWARANRC ^*] (H-CRRWARANRC-NH2; disulfide 1-10) | 0.8 ± 0.3 µM | 92% | > 100 µM | 0% |  |  |  | 11.4 ± 3.6 µM | 57% | 1.1 ± 0.4 µM | > 95% | 6.8 ± 1.3 µM | 78% |  |  | 96%
C[C@@H]1NC(=O)[C@H](Cc2c[nH]c3ccccc23)NC(=O)[C@H](CCCNC(=N)N)NC(=O)[C@H](CCCNC(=N)N)NC(=O)[C@@H](N)CSSC[C@@H](C(N)=O)NC(=O)[C@H](CCCNC(=N)N)NC(=O)[C@H](CC(N)=O)NC(=O)[C@H](CCC(=O)O)NC(=O)[C@H](CCCNC(=N)N)NC1=O [PnCS1[W7E], CRRWARENRC ^*] (H-CRRWARENRC-NH2; disulfide 1-10) | > 100 µM | 21% | > 100 µM | 0% |  |  |  | > 100 µM | 27% | > 100 µM | 42% | > 100 µM | 33% |  |  | 
C[C@@H]1NC(=O)[C@H](Cc2c[nH]c3ccccc23)NC(=O)[C@H](CCCNC(=N)N)NC(=O)[C@H](CCCNC(=N)N)NC(=O)[C@@H](N)CSSC[C@@H](C(N)=O)NC(=O)[C@H](CCCNC(=N)N)NC(=O)[C@H](CC(N)=O)NC(=O)[C@H](CCCCN)NC(=O)[C@H](CCCNC(=N)N)NC1=O [PnCS1[W7K], CRRWARKNRC ^*] (H-CRRWARKNRC-NH2; disulfide 1-10) | 2.8 ± 0.5 µM | 71% | > 100 µM | 0% |  |  |  | 8.2 ± 0.6 µM | 82% | 1.7 ± 0.5 µM | 87% | 3 ± 0.7 µM | 90% |  |  | 

Reference: publication PMC9116130 (Biochemical pharmacology, 2020)
